Data as given in ChEMBL document CHEMBL3390839, “Triazolopyrimidinones as -secretase modulators: structureactivity relationship, modulator profile, and in vivo profiling” (Medchemcomm, 2013).
In brackets after ≈: the same amount, converted by molar mass. Activity calls are given as the source filed them. No cut-off for these calls is given here.

Tests used:
[1] = Solubility of the compound; format: physicochemical
[2] = target: Voltage-gated inwardly rectifying potassium channel KCNH2 (Homo sapiens, UniProt Q12809); experiment: Inhibition of human ERG
[3] = Inhibition of gamma-secretase in mouse primary cortical neurons cells assessed as amyloid beta42 production after 5 days by ELISA; format: cell-based, Cerebral cortex neuron; conditions: for IC50: Mus musculus, Cerebral cortex neuron, 120 h; for pIC50: cerebral cortex neuron
Liver microsome = experiment: Intrinsic clearance in human liver microsomes measured pre ug of protein; format: ADME
Gamma-secretase = experiment: Inhibition of human gamma-secretase in HEK-APPswe cells assessed as amyloid beta42 production by electrochemiluminescence assay; format: cell-based
[4] = Permeability across apical to basolateral side in human Caco2 cells; format: ADME, cell-based; conditions: Caco-2, read-out: permeability
[5] = Permeability across basolateral to apical side in human Caco2 cells; format: ADME, cell-based; conditions: Caco-2, read-out: permeability
[6] = Ratio of drug level in brain to plasma in C57BL/6 mouse; format: ADME, organism-based; conditions: brain and plasma, read-out: BPR
[7] = target: T1, Gamma-secretase (Homo sapiens) (UniProt Q96BI3+Q9NZ42+Q8WW43+P49768+Q92542+P49810); experiment: Inhibition of human gamma-secretase in HEK-APPswe cells assessed as amyloid beta37 production at 10 nM by electrochemiluminescence assay; format: cell-based
[8] = target: T1, Gamma-secretase (Homo sapiens); experiment: Inhibition of human gamma-secretase in HEK-APPswe cells assessed as amyloid beta40 production at 10 nM by electrochemiluminescence assay; format: cell-based
[9] = target: T1, Gamma-secretase (Homo sapiens); experiment: Inhibition of human gamma-secretase in HEK-APPswe cells assessed as amyloid beta42 production at 10 nM by electrochemiluminescence assay; format: cell-based
[10] = target: T1, Gamma-secretase (Homo sapiens); experiment: Inhibition of human gamma-secretase in HEK-APPswe cells assessed as notch processing at 8 uM by electrochemiluminescence assay; format: cell-based
[11] = target: T1, Gamma-secretase (Homo sapiens); experiment: Inhibition of human gamma-secretase in HEK-APPswe cells assessed as amyloid beta38 production at 10 nM by electrochemiluminescence assay; format: cell-based
[12] = target: T1, Gamma-secretase (Homo sapiens); experiment: Inhibition of human gamma-secretase in HEK-APPswe cells assessed as amyloid beta39 production at 10 nM by electrochemiluminescence assay; format: cell-based

Voltage-gated inwardly rectifying potassium channel KCNH2, sequence (Q12809 whole entry): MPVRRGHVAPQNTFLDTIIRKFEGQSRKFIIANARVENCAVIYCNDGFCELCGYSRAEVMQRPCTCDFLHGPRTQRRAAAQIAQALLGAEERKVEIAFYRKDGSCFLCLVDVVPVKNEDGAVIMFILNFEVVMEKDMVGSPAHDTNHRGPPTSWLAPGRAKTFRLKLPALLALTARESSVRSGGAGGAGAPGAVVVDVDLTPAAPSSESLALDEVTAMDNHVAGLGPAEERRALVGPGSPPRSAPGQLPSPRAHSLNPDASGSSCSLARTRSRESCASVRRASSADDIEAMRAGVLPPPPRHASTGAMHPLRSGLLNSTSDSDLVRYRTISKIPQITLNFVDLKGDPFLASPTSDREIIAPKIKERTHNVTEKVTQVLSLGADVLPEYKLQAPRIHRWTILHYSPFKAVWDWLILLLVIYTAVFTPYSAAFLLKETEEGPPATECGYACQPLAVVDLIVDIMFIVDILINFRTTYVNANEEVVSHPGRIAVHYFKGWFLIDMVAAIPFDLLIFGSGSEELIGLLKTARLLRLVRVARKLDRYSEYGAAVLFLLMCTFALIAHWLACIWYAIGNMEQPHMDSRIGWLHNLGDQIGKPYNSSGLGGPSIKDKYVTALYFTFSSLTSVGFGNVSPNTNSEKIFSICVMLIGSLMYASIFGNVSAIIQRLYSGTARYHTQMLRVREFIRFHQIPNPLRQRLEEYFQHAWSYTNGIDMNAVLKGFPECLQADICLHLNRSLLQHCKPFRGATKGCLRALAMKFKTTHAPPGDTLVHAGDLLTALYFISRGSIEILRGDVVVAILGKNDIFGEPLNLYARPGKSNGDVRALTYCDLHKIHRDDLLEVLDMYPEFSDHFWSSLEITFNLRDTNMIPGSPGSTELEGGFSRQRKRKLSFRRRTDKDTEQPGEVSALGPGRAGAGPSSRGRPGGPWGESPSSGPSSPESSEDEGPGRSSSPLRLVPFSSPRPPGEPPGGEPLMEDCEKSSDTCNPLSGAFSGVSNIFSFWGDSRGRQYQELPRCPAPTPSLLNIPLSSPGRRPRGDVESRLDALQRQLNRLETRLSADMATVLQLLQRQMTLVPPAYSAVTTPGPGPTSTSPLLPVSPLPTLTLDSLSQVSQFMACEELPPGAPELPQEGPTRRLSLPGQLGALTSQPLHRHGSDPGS

Compound	solubility ([1]; read-out: solubility) [µM]	IC50 [2] [µM]	IC50 [3] [µM]	CLH (Liver microsome) [µL/min]	pIC50 (Gamma-secretase)	further results
COc1cc(Nc2nc3n(n2)C(C2CC2)CCN3CCC(C)(C)O)ccc1-n1cnc(C)c1 (centres undefined)	69 (≈ 31.2 µg/mL)	16	0.1	26		
COc1cc(Nc2nc3n(n2)C(C)CC(=O)N3Cc2ccccc2)ccc1-n1cnc(C)c1 (stereo in doubt; 19A)				73	7.7	solubility [1]: 1 µM (≈ 0.444 µg/mL); pIC50 [3]: 6.8
COc1cc(Nc2nc3n(n2)C(C)CC(=O)N3CC2CC(F)(F)C2)ccc1-n1cnc(C)c1 (centres undefined)	4 (≈ 1.83 µg/mL)	4.4	0.0501	101		Papp A→B [4]: 50 ×10⁻⁶ cm/s; Papp B→A [5]: 19 ×10⁻⁶ cm/s; Kp [6]: 0.08
COc1cc(Nc2nc3n(n2)CCC(=O)N3Cc2ccccc2Cl)ccc1-n1cnc(C)n1	< 1	33		22	7.4	
COc1cc(Nc2nc3n(n2)CCC(=O)N3Cc2ccccc2C)ccc1-c1cnnc(C)c1	< 1	33	0.0398	109	8	Papp A→B [4]: 14 ×10⁻⁶ cm/s; Papp B→A [5]: 6 ×10⁻⁶ cm/s; Kp [6]: 0.07
COc1cc(Nc2nc3n(n2)CCCN3CCC2CC2)ccc1-n1cnc(C)c1	17 (≈ 6.69 µg/mL)	6.2	0.0794	105	7.4	
COc1cc(Nc2nc3n(n2)C(C)CCN3CC(C)(C)O)ccc1-n1cnc(C)c1 (centres undefined)	330 (≈ 136 µg/mL)	33	0.316	33	6.5	
COc1cc(Nc2nc3n(n2)CC(C)(O)CN3Cc2ccccc2)ccc1-n1cnc(C)c1 (centres undefined)	160 (≈ 71.3 µg/mL)	23	0.126	17		
COc1cc(Nc2nc3n(n2)CCCC3c2ccc(F)cc2)ccc1-n1cnc(C)n1 (stereo in doubt; 14B)					7	pIC50 [3]: 6.5
COc1cc(Nc2nc3n(n2)C(C)CCN3CCC(C)(C)O)ccc1-n1cnc(C)c1 (centres undefined)	380 (≈ 162 µg/mL)	32	0.158	47		
N#CCc1ccc(Nc2nc3n(n2)CCCC3c2ccc(F)cc2)cc1 (centres undefined)					5.8	
COc1cc(Nc2nc3n(n2)CCC(=O)N3Cc2ccccc2C)ccc1-c1cc(C)cnn1	170 (≈ 77.4 µg/mL)	33		27	5	
COc1cc(Nc2nc3n(n2)CCC(=O)N3Cc2ccccc2C)ccc1-n1cnc(C)c1	< 1	13	0.0398	114	8	
COc1nc(Nc2nc3n(n2)CCCC3c2ccc(F)cc2)ccc1-n1cnc(C)c1 (centres undefined)					7.2	
COc1cc(Nc2nc3n(n2)C(C)CC(=O)N3Cc2cc(F)ccc2F)ccc1-n1cnc(C)c1 (centres undefined)	< 1		0.02	70	7.7	
COc1cc(Nc2nc3n(n2)CCCC3c2ccc(F)cc2)ccc1-c1nc(C)no1 (centres undefined)					6.8	
COc1cc(Nc2nc3n(n2)C(c2ccccc2)CCN3CC(C)(C)O)ccc1-n1cnc(C)c1 (centres undefined)	230 (≈ 109 µg/mL)	26	0.0251	39		Papp A→B [4]: 35 ×10⁻⁶ cm/s; Papp B→A [5]: 19 ×10⁻⁶ cm/s; Kp [6]: 0.01
Cc1nnc(-c2ccc(Nc3nc4n(n3)CCCC4c3ccc(F)cc3)cc2)o1 (centres undefined)					5.9	
COc1cc(Nc2nc3n(n2)CCCC3c2ccc(F)cc2)ccc1-n1cnc(C)n1 (stereo in doubt; 14A)					7.4	pIC50 [3]: 7
COc1cc(Nc2nc3n(n2)C(C)CC(=O)N3Cc2ccccc2)ccc1-n1cnc(C)c1 (stereo in doubt; 19B)						inhibition [7]: inactive; inhibition [8]: inactive; inhibition [9]: Active; Activity [10]: inactive; inhibition [11]: inactive; inhibition [12]: inactive
